Laboratory results from the supplement of paper PMC11061612.

Assays:
Assay in all cases: Bliss excess, mean over the matrix (fraction); higher = more synergy
[1] = tested on: A2780 (Ovarian Carcinoma)
Procedure, shortened: (§1)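 Cell lines in DMEM/F12 or RPMI with 10% FBS were plated in 1536-well plates, held 24 hours at 37°C, 5% CO2, then given two-drug dose matrices for 72 hours (DMSO typically 0.2%). Viability was read by CellTiter-Glo 2.0 luminescence and scaled as inhibition from 0 (vehicle wells) to 1 (blank wells). Combination Emax is the second-highest inhibition in the matrix; Bliss excess is observed combination effect minus expected EA + EB − EA·EB, EA and EB being single-agent effects.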

[2] = tested on: NCI-H1703 (Squamous Cell Lung Carcinoma)
Procedure, shortened: as §1

KP-N-YN (Neuroblastoma) = tested on: KP-N-YN (Neuroblastoma)
Procedure, shortened: as §1

[3] = tested on: A253 (Head and Neck Carcinoma)
Procedure, shortened: as §1

[4] = tested on: GA-10 (Burkitt's Lymphoma)
Procedure, shortened: as §1

[5] = tested on: LS-411N (Colorectal Carcinoma)
Procedure, shortened: as §1

[6] = tested on: CESS (Acute Myeloid Leukemia)
Procedure, shortened: as §1

[7] = tested on: MHH-ES-1 (Ewing's Sarcoma)
Procedure, shortened: as §1

[8] = tested on: JVM-2 (B-Cell Non-Hodgkin's Lymphoma)
Procedure, shortened: as §1

[9] = tested on: OACp4C (Esophageal Adenocarcinoma)
Procedure, shortened: as §1

769-P (Kidney Carcinoma) = tested on: 769-P (Kidney Carcinoma)
Procedure, shortened: as §1

[10] = tested on: KYSE-220 (Esophageal Squamous Cell Carcinoma)
Procedure, shortened: as §1

A204 (Rhabdomyosarcoma) = tested on: A204 (Rhabdomyosarcoma)
Procedure, shortened: as §1

[11] = tested on: NCI-H716 (Colorectal Carcinoma)
Procedure, shortened: as §1

[12] = tested on: GCT (Other Solid Carcinomas)
Procedure, shortened: as §1

IM-9 (Non-Cancerous) = tested on: IM-9 (Non-Cancerous)
Procedure, shortened: as §1

COLO-792 (Melanoma) = tested on: COLO-792 (Melanoma)
Procedure, shortened: as §1

[13] = tested on: NCI-H2228 (Lung Adenocarcinoma)
Procedure, shortened: as §1

[14] = tested on: DU-4475 (Breast Carcinoma)
Procedure, shortened: as §1

[15] = tested on: JHU-022 (Oral Cavity Carcinoma)
Procedure, shortened: as §1

Row | SMILES | Bliss excess [1] | Bliss excess [2] | Bliss excess (KP-N-YN (Neuroblastoma)) | Bliss excess [3] | Bliss excess [4] | Bliss excess [5] | Bliss excess [6] | Bliss excess [7] | Bliss excess [8] | Bliss excess [9] | Bliss excess (769-P (Kidney Carcinoma)) | Bliss excess [10] | Bliss excess (A204 (Rhabdomyosarcoma)) | Bliss excess [11] | Bliss excess [12] | Bliss excess (IM-9 (Non-Cancerous)) | Bliss excess (COLO-792 (Melanoma)) | Bliss excess [13] | Bliss excess [14] | Bliss excess [15]
1 | CC1(C)CCC(CN2CCN(c3ccc(C(=O)NS(=O)(=O)c4ccc(NCC5CCOCC5)c([N+](=O)[O-])c4)c(Oc4cnc5[nH]ccc5c4)c3)CC2)=C(c2ccc(Cl)cc2)C1 [Venetoclax] + CCN(CCO)CCCOc1ccc2c(Nc3cc(CC(=O)Nc4cccc(F)c4)[nH]n3)ncnc2c1 [AZD2811] (first compound max 1 µM, 7x7, partner max 1 µM) | 0.019 | 0.0412 | 0.104 | 0.046 | 0.0033 | -0.0284 | 0.0083 | 0.0824 | 0.051 | -0.0234 | -0.0637 | 0.0335 | 0.0005 | -0.0813 | -0.004 | 0.0275 | -0.0048 | -0.039 | 0.0087 | -0.0139
2 | CC1(C)CCC(CN2CCN(c3ccc(C(=O)NS(=O)(=O)c4ccc(NCC5CCOCC5)c([N+](=O)[O-])c4)c(Oc4cnc5[nH]ccc5c4)c3)CC2)=C(c2ccc(Cl)cc2)C1 [Venetoclax] + CN(C)CCCOc1ccc(-c2ccc3ncc4c(c3c2)n(C2CCOCC2)c(=O)n4C)cn1 [AZD0156] (first compound max 1 µM, 7x7, partner max 1 µM) | -0.02 | 0.013 | -0.0016 | 0.0119 | -0.0585 | -0.0214 | -0.0638 | 0.0177 | 0.0143 | -0.0468 | -0.0276 | -0.0135 | -0.0325 | -0.0272 | -0.0404 | 0.0254 | 0.0153 | -0.0004 | -0.0158 | -0.0382
3 | CC1(C)CCC(CN2CCN(c3ccc(C(=O)NS(=O)(=O)c4ccc(NCC5CCOCC5)c([N+](=O)[O-])c4)c(Oc4cnc5[nH]ccc5c4)c3)CC2)=C(c2ccc(Cl)cc2)C1 [Venetoclax] + COc1cc(Nc2ncc3c(n2)-c2ccc(Cl)cc2C(c2c(F)cccc2OC)=NC3)ccc1C(=O)O [Alisertib] (first compound max 1 µM, 7x7, partner max 10 µM) | -0.0602 | 0.0636 | 0.0886 | 0.0091 | 0.0181 | -0.0329 | 0.0268 | 0.0931 | 0.0333 | 0.0112 | 0.0339 | -0.0305 | -0.0088 | -0.0203 | -0.0365 | 0.043 | 0.0487 | -0.0413 | 0.0933 | -0.0385
4 | CC1(C)CCC(CN2CCN(c3ccc(C(=O)NS(=O)(=O)c4ccc(NCC5CCOCC5)c([N+](=O)[O-])c4)c(Oc4cnc5[nH]ccc5c4)c3)CC2)=C(c2ccc(Cl)cc2)C1 [Venetoclax] + C[C@@H]1COCCN1C2=NC(=NC(=C2)C3(CC3)[S@](=N)(=O)C)C4=C5C=CNC5=NC=C4 [AZD6738] (first compound max 1 µM, 7x7, partner max 10 µM) | -0.0548 | -0.0216 | -0.0619 | -0.0372 | -0.0281 | -0.0311 | -0.0075 | 0.0077 | -0.0035 | -0.0418 | -0.0067 | -0.0398 | -0.0355 | -0.0015 | -0.112 | 0.0201 | 0.03 | -0.0361 | 0.0062 | -0.007
5 | CC1(C)CCC(CN2CCN(c3ccc(C(=O)NS(=O)(=O)c4ccc(NCC5CCOCC5)c([N+](=O)[O-])c4)c(Oc4cnc5[nH]ccc5c4)c3)CC2)=C(c2ccc(Cl)cc2)C1 [Venetoclax] + C[C@@H](Nc1cc(F)cc(F)c1)c1cc(C(=O)N(C)C)cc2c(=O)cc(N3CCOCC3)oc12 [AZD8186] (first compound max 1 µM, 7x7, partner max 3 µM) | -0.0138 | 0.0037 | 0.104 | -0.0364 | -0.0088 | 0.0099 | -0.0244 | -0.0248 | 0.0354 | 0.0104 | 0.049 | -0.0332 | -0.0152 | -0.047 | -0.0154 | -0.0608 | 0.0036 | 0.0129 | -0.0202 | -0.0563
6 | CC1(C)CCC(CN2CCN(c3ccc(C(=O)NS(=O)(=O)c4ccc(NCC5CCOCC5)c([N+](=O)[O-])c4)c(Oc4cnc5[nH]ccc5c4)c3)CC2)=C(c2ccc(Cl)cc2)C1 [Venetoclax] + Cc1cc2ncnn2cc1Nc1ncc2c(n1)n(C1CCOCC1)c(=O)n2C [AZD7648] (first compound max 1 µM, 7x7, partner max 10 µM) | -0.03 | 0.0396 | -0.0085 | 0.0072 | -0.0603 | -0.0184 | -0.0288 | -0.0189 | -0.025 | -0.0027 | -0.0087 | -0.0371 | -0.0172 | -0.0146 | -0.046 | 0.0403 | -0.0139 | -0.0072 | 0.0152 | -0.0392
7 | CC1(C)CCC(CN2CCN(c3ccc(C(=O)NS(=O)(=O)c4ccc(NCC5CCOCC5)c([N+](=O)[O-])c4)c(Oc4cnc5[nH]ccc5c4)c3)CC2)=C(c2ccc(Cl)cc2)C1 [Venetoclax] + Cn1cnc2c(F)c(Nc3ccc(Br)cc3Cl)c(C(=O)NOCCO)cc21 [Selumetinib] (first compound max 1 µM, 7x7, partner max 3 µM) | 0.0027 | 0.0061 | -0.0102 | -0.028 | -0.0622 | -0.0148 | -0.0674 | -0.0424 | 0.0617 | 0.0303 | -0.004 | 0.0102 | -0.0293 | -0.0814 | -0.0399 | 0.111 | 0.0083 | -0.0135 | -0.0057 | -0.0181
